Experimental data reported in ChEMBL document CHEMBL3259791, “Discovery of (E)-3-((styrylsulfonyl)methyl)pyridine and (E)-2-((styrylsulfonyl)methyl)pyridine derivatives as anticancer agents: synthesis, structure-activity relationships, and biological activities” (J Med Chem, 2014).
The source made the active and inactive calls. The rule behind the calls is not given here.

Tests used:
A2780 [1] = assay: Antiproliferative activity against human A2780 cells assessed as cell growth inhibition after 72 hrs by MTT assay; assay type: functional; conditions: A2780, 72 h
HCT-116 [2] = assay: Antiproliferative activity against human HCT116 cells assessed as cell growth inhibition after 72 hrs by MTT assay; assay type: functional; conditions: HCT-116, 72 h
MCF7 [3] = assay: Antiproliferative activity against human MCF7 cells assessed as cell growth inhibition after 72 hrs by MTT assay; assay type: functional; conditions: MCF7, 72 h
HCT-116 [4] = assay: Ratio of ON01910 IC50 to compound IC50 for human HCT116 cells; assay type: functional
HeLa [5] = assay: Antiproliferative activity against human HeLa cells assessed as cell growth inhibition after 72 hrs by MTT assay; assay type: functional
DU-145 [6] = assay: Antiproliferative activity against AR negative human DU145 cells assessed as cell growth inhibition after 72 hrs by MTT assay; assay type: functional; conditions: DU-145, 72 h
DU-145 [7] = assay: Ratio of ON01910 IC50 to compound IC50 for AR negative human DU145 cells; assay type: functional
[8] = AUC (0 to t) in mouse at 40 mg/kg, po after 24 hrs; assay type: ADME, organism-based; design: time < 24 hr, dose 40 mg/kg, route oral; conditions: plasma
[9] = molecular target: Voltage-gated inwardly rectifying potassium channel KCNH2 (Homo sapiens, UniProt Q12809); assay: Inhibition of human ERG expressed in CHO cells
WI-38 [10] = assay: Antiproliferative activity against human WI38 cells assessed as cell growth inhibition after 72 hrs by MTT assay; assay type: functional; conditions: WI-38, 72 h
LNCaP [11] = assay: Selectivity ratio of IC50 for human WI38 cells to IC50 for AR positive human LNCAP cells; assay type: functional
A2780 [12] = assay: Selectivity ratio of IC50 for human WI38 cells to IC50 for human A2780 cells; assay type: functional
[13] = Octanol-buffer partition coefficient, log D of the compound at pH 7.4 by shake-flask method; assay type: physicochemical
[14] = Apparent permeability across basolateral to apical side in human Caco2 cells; assay type: ADME, cell-based; conditions: Caco-2
[15] = Aqueous solubility of the compound by turbidimetric solubility assay; assay type: physicochemical; conditions: buffer
HeLa [16] = assay: Ratio of ON01910 IC50 to compound IC50 for human HeLa cells; assay type: functional
DU-145 [17] = assay: Selectivity ratio of IC50 for human WI38 cells to IC50 for AR negative human DU145 cells; assay type: functional
[18] = Antiproliferative activity against human PANC1 cells assessed as cell growth inhibition after 72 hrs by MTT assay; assay type: functional; conditions: PANC-1, 72 h
[19] = Elimination half life in mouse at 40 mg/kg, po after 24 hrs; assay type: ADME, organism-based; design: dose 40 mg/kg, route oral; conditions: in vivo, read-out: beta t1/2 (converted)
[20] = Oral bioavailability (0 to infinity) in mouse at 40 mg/kg after 24 hrs; assay type: ADME, organism-based; conditions: in vivo
MCF7 [21] = assay: Antiproliferative activity against ER positive human MCF7 cells assessed as cell growth inhibition after 72 hrs by MTT assay; assay type: functional; conditions: MCF7, 72 h
WI-38 [22] = assay: Selectivity ratio of IC50 for human WI38 cells to IC50 for ER negative human MDA-MB-231 cells; assay type: functional
PANC-1 [23] = assay: Ratio of ON01910 IC50 to compound IC50 for human PANC1 cells; assay type: functional
LNCaP [24] = assay: Ratio of ON01910 IC50 to compound IC50 for AR positive human LNCAP cells; assay type: functional
MCF7 [25] = assay: Ratio of ON01910 IC50 to compound IC50 for ER positive human MCF7 cells; assay type: functional
MDA-MB-231 [26] = assay: Antiproliferative activity against ER negative human MDA-MB-231 cells assessed as cell growth inhibition after 72 hrs by MTT assay; assay type: functional; conditions: MDA-MB-231, 72 h
[27] = Apparent permeability across apical to basolateral side in human Caco2 cells; assay type: ADME, cell-based; conditions: Caco-2
A2780 [28] = assay: Ratio of ON01910 IC50 to compound IC50 for human A2780 cells; assay type: functional
LNCaP [29] = assay: Antiproliferative activity against AR positive human LNCAP cells assessed as cell growth inhibition after 72 hrs by MTT assay; assay type: functional
HCT-116 [30] = assay: Selectivity ratio of IC50 for human WI38 cells to IC50 for human HCT116 cells; assay type: functional
[31] = Oral bioavailability (0 to t) in mouse at 40 mg/kg after 24 hrs; assay type: ADME, organism-based; conditions: in vivo
[32] = Cmax in mouse at 40 mg/kg, po after 24 hrs; assay type: ADME, organism-based; design: dose 40 mg/kg, route oral; conditions: in vivo
[33] = Dissociation constant, pKa of the compound by pH-metric method; assay type: physicochemical
HeLa [34] = assay: Selectivity ratio of IC50 for human WI38 cells to IC50 for human HeLa cells; assay type: functional
PANC-1 [35] = assay: Selectivity ratio of IC50 for human WI38 cells to IC50 for human PANC1 cells; assay type: functional
MCF7 [36] = assay: Selectivity ratio of IC50 for human WI38 cells to IC50 for ER positive human MCF7 cells; assay type: functional
MDA-MB-231 [37] = assay: Ratio of ON01910 IC50 to compound IC50 for ER negative human MDA-MB-231 cells; assay type: functional
[38] = Half life in rat liver microsomes; assay type: ADME
HCT-116 [39] = assay: Antitumor activity against human HCT116 cells xenografted in mouse assessed as delay in tumor growth at 100 mg/kg, ip daily 5 days/week for 2 weeks; assay type: functional, organism-based; design: dose 100 mg/kg
HCT-116 [40] = assay: Antitumor activity against human HCT116 cells xenografted in mouse assessed as delay in tumor growth at 33.3 mg/kg, ip daily 5 days/week for 2 weeks; assay type: functional, organism-based; design: dose 33.3 mg/kg
[41] = AUC (0 to t) in mouse at 10 mg/kg, po after 24 hrs; assay type: ADME, organism-based; design: time < 24 hr, dose 10 mg/kg, route oral; conditions: plasma
[42] = Elimination half life in mouse at 10 mg/kg, po after 24 hrs; assay type: ADME, organism-based; design: dose 10 mg/kg, route oral; conditions: in vivo, read-out: beta t1/2 (converted)
[43] = Cmax in mouse at 10 mg/kg, po after 24 hrs; assay type: ADME, organism-based; design: dose 10 mg/kg, route oral; conditions: in vivo

Sequence of Voltage-gated inwardly rectifying potassium channel KCNH2 (Q12809 whole entry): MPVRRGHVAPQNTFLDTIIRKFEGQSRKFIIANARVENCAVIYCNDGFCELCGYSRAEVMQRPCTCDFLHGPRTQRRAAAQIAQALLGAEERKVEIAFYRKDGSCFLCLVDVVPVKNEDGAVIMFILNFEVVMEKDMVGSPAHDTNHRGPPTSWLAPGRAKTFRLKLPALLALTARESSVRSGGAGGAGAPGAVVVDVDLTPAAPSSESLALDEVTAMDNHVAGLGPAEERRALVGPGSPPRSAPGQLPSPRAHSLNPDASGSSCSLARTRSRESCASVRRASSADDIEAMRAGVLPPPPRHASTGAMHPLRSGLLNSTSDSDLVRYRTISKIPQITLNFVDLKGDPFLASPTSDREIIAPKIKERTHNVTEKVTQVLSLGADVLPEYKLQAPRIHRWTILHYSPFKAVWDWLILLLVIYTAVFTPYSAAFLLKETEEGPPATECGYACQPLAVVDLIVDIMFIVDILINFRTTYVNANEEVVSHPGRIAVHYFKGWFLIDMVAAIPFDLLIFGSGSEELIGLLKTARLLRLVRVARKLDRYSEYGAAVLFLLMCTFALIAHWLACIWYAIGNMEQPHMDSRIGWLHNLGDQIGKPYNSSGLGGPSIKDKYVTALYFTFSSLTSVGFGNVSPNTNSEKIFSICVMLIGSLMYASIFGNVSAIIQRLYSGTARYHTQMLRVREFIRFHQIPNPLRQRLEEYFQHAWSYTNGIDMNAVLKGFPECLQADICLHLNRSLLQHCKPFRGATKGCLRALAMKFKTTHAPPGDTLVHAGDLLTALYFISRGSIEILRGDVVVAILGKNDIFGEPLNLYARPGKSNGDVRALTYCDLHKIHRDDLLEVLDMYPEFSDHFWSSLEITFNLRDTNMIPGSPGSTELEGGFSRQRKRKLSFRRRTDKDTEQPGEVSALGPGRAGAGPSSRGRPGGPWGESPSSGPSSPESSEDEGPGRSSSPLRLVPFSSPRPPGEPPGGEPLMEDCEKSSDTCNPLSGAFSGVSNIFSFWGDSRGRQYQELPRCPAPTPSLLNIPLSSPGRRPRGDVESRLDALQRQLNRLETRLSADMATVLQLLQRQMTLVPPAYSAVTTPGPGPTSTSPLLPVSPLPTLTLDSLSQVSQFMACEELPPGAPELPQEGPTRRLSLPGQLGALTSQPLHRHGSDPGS

## CCS(=O)(=O)Nc1cc(CS(=O)(=O)/C=C/c2c(OC)cc(OC)cc2OC)cnc1OC
A2780 [1]
  GI50: > 10000 nM
HCT-116 [2]
  GI50: > 10000 nM
MCF7 [3]
  GI50: > 10000 nM

## CCCS(=O)(=O)Nc1cc(CS(=O)(=O)/C=C/c2c(OC)cc(OC)cc2OC)cnc1OC
A2780 [1]
  GI50: > 10000 nM
HCT-116 [2]
  GI50: > 10000 nM
MCF7 [3]
  GI50: > 10000 nM

## COc1cc(OC)c(/C=C/S(=O)(=O)Cc2ccc(OC)c([N+](=O)[O-])n2)c(OC)c1
A2780 [1]
  GI50: > 10000 nM
HCT-116 [2]
  GI50: > 10000 nM
MCF7 [3]
  GI50: 9970 nM

## CCN(C(C)=O)c1cc(CS(=O)(=O)/C=C/c2c(OC)cc(OC)cc2OC)cnc1OC
HCT-116 [2]
  GI50: > 10000 nM
MCF7 [3]
  GI50: > 10000 nM

## COc1cc(OC)c(/C=C/S(=O)(=O)Cc2cnc(OC)c(N)c2)c(OC)c1
HCT-116 [4]
  Ratio IC50: 10
HeLa [5]
  GI50: 4 nM
A2780 [1]
  GI50: 5 nM
DU-145 [6]
  GI50: 5 nM
DU-145 [7]
  Ratio IC50: 10
[8]
  AUC(0-t) at 24 h: 24.6 µM·h
[9]
  IC50: > 25000 nM
WI-38 [10]
  GI50: > 10000 nM
HCT-116 [2]
  GI50: 5 nM
LNCaP [11]
  Ratio IC50: >1400
A2780 [12]
  Ratio IC50: >1400
[13]
  logD: 2.34
[14]
  Papp B→A: 21.5 ×10⁻⁶ cm/s
[15]
  solubility kinetic: > 100 µM
HeLa [16]
  Ratio IC50: 10
DU-145 [17]
  Ratio IC50: >1400
[18]
  GI50: < 1 nM
[19]
  half-life: 61.8 h
[20]
  bioavailability: 100%
MCF7 [21]
  GI50: 6 nM
WI-38 [22]
  Ratio IC50: >1400
PANC-1 [23]
  Ratio IC50: 10
LNCaP [24]
  Ratio IC50: 10
MCF7 [25]
  Ratio IC50: 10
MDA-MB-231 [26]
  GI50: 6 nM
[27]
  Papp A→B: 42.3 ×10⁻⁶ cm/s
A2780 [28]
  Ratio IC50: 10
LNCaP [29]
  GI50: 3 nM
HCT-116 [30]
  Ratio IC50: >1400
[31]
  bioavailability: 28%
[32]
  Cmax: 3 µM
[33]
  pKa: 2.39
HeLa [34]
  Ratio IC50: >1400
MCF7 [3]
  GI50: 6 nM
PANC-1 [35]
  Ratio IC50: >1400
MCF7 [36]
  Ratio IC50: >1400
MDA-MB-231 [37]
  Ratio IC50: 10
[38]
  half-life: 0.333 h

## COc1cc(OC)c(/C=C/S(=O)(=O)Cc2cnc(OC)c(NC(C)=O)c2)c(OC)c1
A2780 [1]
  GI50: 7100 nM
HCT-116 [2]
  GI50: 8220 nM
MCF7 [3]
  GI50: 7500 nM

## COc1cc(OC)c(C(C(c2cnc(OC)c([N+](=O)[O-])c2)S(C)(=O)=O)N2CCCCC2)c(OC)c1 (stereo not given)
HCT-116 [2]
  GI50: 4400 nM
MCF7 [3]
  GI50: 6410 nM

## COc1cc(OC)c(/C=C/S(=O)(=O)Cc2cnc(OC)c(NCC(N)=O)c2)c(OC)c1
HCT-116 [2]
  GI50: 6590 nM
MCF7 [3]
  GI50: > 10000 nM

## COc1cc(OC)c(/C=C/S(=O)(=O)Cc2cnc(OC)c(NS(C)(=O)=O)c2)c(OC)c1
HeLa [5]
  GI50: 682 nM
A2780 [1]
  GI50: 317 nM
HCT-116 [39]
  Activity: Active
HCT-116 [40]
  Activity: Active
WI-38 [10]
  GI50: > 10000 nM
HCT-116 [2]
  GI50: 570 nM
[41]
  AUC(0-t) at 24 h: 7.2 µM·h
[13]
  logD: 1.52
[14]
  Papp B→A: 47.1 ×10⁻⁶ cm/s
[15]
  solubility kinetic: > 100 µM
[18]
  GI50: 875 nM
[42]
  half-life: 3 h
MCF7 [21]
  GI50: 780 nM
[43]
  Cmax: 6.3 µM
MDA-MB-231 [26]
  GI50: 671 nM
[27]
  Papp A→B: 8.9 ×10⁻⁶ cm/s
[33]
  pKa: 7.66
MCF7 [3]
  GI50: 780 nM
[38]
  half-life: 1.17 h
